Experimental data published in patent publication US20160184459A1, “CANCER CELL SPECIFIC IMAGING PROBES AND METHODS OF USE” (THE RESEARCH FOUNDATION FOR THE STATE UNIVERSITY OF NEW YORK, priority 2013, published 2016).
pIC50: −log10 of the molar value.

Columns and labels:
[1] = test system: pancreatic cancer cells (BXPC-3 and MiaPaca-2); experiment: Cell viability assay, pancreatic cancer cells; format: cell-based, human; conditions: MTS
Procedure: FIG. 16. Anticancer effect of BKAc-Puro on pancreatic cell lines. The cell lines were treated with DMSO (vehicle), BKAc-Puro (54 μM), or Puro (4.2 μM) for 5 d followed by MTS assay. Normal Eph4 (non-pancreatic) cells are shown as control. Data represent mean values of triplicate measurements±s.d.
FIG. 18. Selective cytotoxicity by BKAc-Puro on pancreatic cancer cells. Pancreatic cancer (BXPC-3 and Miapaca-2), colon cancer (HCT116 as a positive control sensitive to the drug), and normal colon (CCD841-CoN as a negative control) cells were grown and analyzed as in FIG. 13. […]
(§1) Cell number was determined by cell counting using improved Neubauer hemacytometer. Cell viability was calculated as the number of viable cells divided by the total number of cells using Trypan Blue Stain (Invitrogen) to distinguish non-viable cells. […] After additional 2-3 h incubation, the absorbance of the formazan at 490 nm was measured by the microplate reader. […] Determination of non-viable cells using PI staining was performed by adding 1 μg/ml of PI solution (Sigma) to the cell culture, prior to the examination under fluorescence microscopy (Axiovert 3, Carl Zeiss) through a×32 objective equipped with a digital imaging processor (Infinity 3, Lumenera).

[2] = test system: non-malignant Caco-2 cells; experiment: MTS cell viability assay, Caco-2; format: cell-based, human
Procedure: FIG. 13. Inhibition of cell viability by BKAc-Puro is presented in dose-response curve format for the same cell lines as in FIG. 8. The cell lines were treated with DMSO or the indicated doses of agent (4.22, 8.44, 16.9, 33.8, 67.5, or 135 μM) for 5 d followed by MTS assay. Data represent mean values of triplicate measurements±s.d. (n=3). IC50 values were fit by logistic regression.
FIG. 14. Inhibition of cell viability by parental Puro. The cell lines were treated with the indicated doses of Puro (0, 1.1, 2.1, 4.2, or 8.4 μM) for 3 d followed by MTS assay. Data represent mean values of triplicate measurements±s.d.
Cell number was determined by cell counting using improved Neubauer hemacytometer. Cell viability was calculated as the number of viable cells divided by the total number of cells using Trypan Blue Stain (Invitrogen) to distinguish non-viable cells. Data were obtained from duplicated samples with quadruplicate measurements. MTS based cell viability assay was performed using CellTiter 96 Aqueous Cell Proliferation Assay (Promega) according to the manufacturer's instruction. Either 1 μl of DMSO alone or variable concentrations of BKAc-Puro or Puro in DMSO were added to the cell lines seeded at 5×10^4 cells per well in 96-well tissue culture plates in 100 μl of the growth medium, followed by 3-5 d incubation at 37° C. with 5% CO2 atmosphere. Then 20 μl of the MTS reagent was added to each well. After additional 2-3 h incubation, the absorbance of the formazan at 490 nm was measured by the microplate reader. Percent cell viability was expressed relative to the wells containing cells treated with DMSO alone. Data were obtained from triplicate measurements. […] Determination of non-viable cells using PI staining was performed by adding 1 μg/ml of PI solution (Sigma) to the cell culture, prior to the examination under fluorescence microscopy (Axiovert 3, Carl Zeiss) through a×32 objective equipped with a digital imaging processor (Infinity 3, Lumenera).

CCD841-CoN = experiment: Cell viability assays, normal colon cells; format: cell-based, human; conditions: negative control cells
Procedure: FIG. 15. Inhibition of cell viability by BKAc-Puro. The cell lines were grown and analyzed as in FIG. 12.
FIG. 18. Selective cytotoxicity by BKAc-Puro on pancreatic cancer cells. Pancreatic cancer (BXPC-3 and Miapaca-2), colon cancer (HCT116 as a positive control sensitive to the drug), and normal colon (CCD841-CoN as a negative control) cells were grown and analyzed as in FIG. 13. BKAc-Puro can effectively cause cell death on pancreatic cancer cells (BXPC-3 and MiaPaca-2) that are known to resistant to conventional chemotherapeutic drugs including 5-FU and Gemicitabine.
(§2) FIG. 19. Selective cytotoxicity by BKAc-Puro on prostate cancer cells. Prostate cancer (PC-3, DU-145, and LNCaP), colon cancer (HCT116 as a positive control sensitive to the drug), and normal colon (CCD841-CoN as a negative control) cells were grown and analyzed as in FIG. 13. BKAc-Puro can effectively cause cell death on prostate cancer cells.
Cell number was determined by cell counting using improved Neubauer hemacytometer. Cell viability was calculated as the number of viable cells divided by the total number of cells using Trypan Blue Stain (Invitrogen) to distinguish non-viable cells. Data were obtained from duplicated samples with quadruplicate measurements. […] After additional 2-3 h incubation, the absorbance of the formazan at 490 nm was measured by the microplate reader. […]

RPMI8226 cells = experiment: Live single cell detection by FACS, cell surface Puro; format: cell-based; conditions: 20 μg/ml, 16 hr, anti-puro antibody (12D10) Alexa 647, FACS
Procedure: Cell surface detection of Puro by anti-puro antibody (12D10) conjugated to Alexa 647 (EMD Millipore). RPMI8226 cells were treated with Puro (0.25 μg/ml) or Boc-KAc-Puro (20 μg/ml) for 16 hr then harvested by centrifugation followed by two times wash using cold washing solution (0.1% BSA in PBS). Cells were resuspended in the same solution and incubated 30 min on ice with Alexa 647 conjugated mouse IgG2a anti-puromycin antibody (12D10). Cells were washed twice with the solution followed by FACS analysis (BD FACSCalibur). The specificity of the antibody was confirmed by using isotype control antibody (mouse IgG2a conjugated with Alexa 647).

[3] = test system: malignant colon cancer cells with high HDAC and CTSL activity; experiment: Cell counting, trypan blue exclusion and PI staining, malignant colon cancer cell lines; format: cell-based, human; conditions: 54 μM
Procedure: FIG. 9. The colon cancer cell lines were grown for 5 d either with vehicle control DMSO (gray symbols) or 54 μM BKAc-Puro (red and blue symbols), and cell number was determined at the indicated time points.
FIG. 10. The cell lines were grown as in FIG. 8, cell viability was determined by trypan blue at the indicated time points, and is presented as the percentage of live cells treated with vehicle control (gray symbols) or BKAc-Puro (red and blue symbols).
FIG. 11. The cell lines were grown as in FIG. 8, and dead cells were determined after 80 h by PI signal under fluorescent microscope. BF, bright field. PI, fluorescent PI channel.
as §1, with “cells. Data were obtained from duplicated samples with quadruplicate measurements.” for “cells.”

[4] = test system: prostate cancer cells (PC-3, DU-145 and LNCaP); experiment: Cell viability assay, prostate cancer cells; format: cell-based; conditions: dose-response, MTS
Procedure: as §2
as §1, with “cells. Data were obtained from duplicated samples with quadruplicate measurements. MTS based cell viability assay was performed using CellTiter 96 Aqueous Cell Proliferation Assay (Promega) according to the manufacturer's instruction.” for “cells.”

COc1ccc(CC(NC(=O)C(CCCCNC(C)=O)NC(=O)OC(C)(C)C)C(=O)NC2C(O)[C@H](n3cnc4c(N(C)C)ncnc43)O[C@@H]2CO)cc1 (stereo partly drawn) [BKAc-Puro, N-[3′-(α-Amino-p-methoxyhydrocinnamamido)-3′-deoxy-N,N-dimethyldenosinyl)-N-α-(t-butoxycarbonyl]-N-ε-acetyl-L-lysineamide]
Effect on cell viability ([1]; 54 μM, 5 d): also effective
Cell death ([1]; dose-response): effectively caused cell death
Highest inactive dose relative to dose of parental Puro effective to Caco-2 cells ([2]; 135 μM BKAc-Puro vs parental Puro): more than 30 times
pIC50 ([2]; Homo sapiens, Caco-2, 120 h, MTS, 5 d, sufficient inhibition not achieved with doses up to 135 μM): < 3.87
Effect on normal colon cells (CCD841-CoN): relatively little effect
Puro presentation on cell surface proteins (RPMI8226 cells): confirmed
Cell death (trypan blue exclusion, morphology, PI staining) [3]: massive cell death
Cell proliferation (cell number) ([3]; 5 d): impaired the proliferation
Cell death [4]: effectively caused cell death
